Source: patent US20160002291A1, “Active Agent Prodrugs with Heterocyclic Linkers” (Signature Therapeutics, Inc., priority 2011, published 2016)

How the values were obtained:
[1] = Spacer leaving group cyclization release rate in pH 7.4 phosphate buffer (Example 39); details: 2.18 mM, 50 mM pH 7.4 phosphate buffer, 20° C.
[2] = Oral administration of hydrocodone prodrugs co-dosed with Compound 109 to rats (Example 46); details: co-dosed PO with KC-40 or KC-50 to rats
[3] = Oral administration of oxycodone prodrugs co-dosed with trypsin inhibitor Compound 109 to rats (Example 40); format: in vivo; details: co-dosed PO with KC-12 or KC-17 to rats
[4] = Pharmacokinetics following PO administration of Compound KC-55 to rats (Example 48)
trypsin = molecular target: T1, trypsin (Bos taurus, UniProt P00760); assay: In vitro trypsin-mediated cleavage of hydrocodone prodrugs (Example 44); format: biochemical, bovine; details: conditions as Example 39
T1 construct: purchased Sigma-Aldrich T8003; host or cells: bovine pancreas
T1 sequence (P00760 24-246): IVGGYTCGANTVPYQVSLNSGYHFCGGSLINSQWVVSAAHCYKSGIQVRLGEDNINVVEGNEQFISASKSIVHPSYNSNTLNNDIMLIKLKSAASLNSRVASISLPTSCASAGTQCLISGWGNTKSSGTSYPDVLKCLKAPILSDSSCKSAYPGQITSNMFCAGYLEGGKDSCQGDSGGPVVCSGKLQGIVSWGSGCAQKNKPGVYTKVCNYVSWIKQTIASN
Description: The reactions were conducted at 37° C. for 24 h. Samples were collected at specified time points, transferred into 0.5% formic acid in acetonitrile to stop trypsin activity, and stored at less than −70° C. until analysis by LC-MS/MS.

## COc1ccc2c3c1O[C@H]1C(OC(=O)N4CCCCC4CN)=CC[C@@]4(O)[C@@H](C2)N(C)CC[C@]314 (single isomer, unassigned; peak a) [KC-11 peak A, N-(oxycodone-6-enol-carbonyl)piperidine-2-methylamine]
[1]
  half-life (cyclization; compound disappearance): 1.30 ± 0.038 h

## COc1ccc2c3c1O[C@H]1C(OC(=O)N4CCCCC4CN)=CC[C@@]4(O)[C@@H](C2)N(C)CC[C@]314 (single isomer, unassigned; peak b) [KC-11 peak B, N-(oxycodone-6-enol-carbonyl)piperidine-2-methylamine]
[1]
  half-life (cyclization; compound disappearance): 0.876 ± 0.012 h

## N=C(N)c1ccc2cc(OC(=O)c3ccc(N=C(N)N)cc3)ccc2c1 [Compound 109, 6-carbamimidoylnaphthalen-2-yl 4-(diaminomethyleneamino)benzoate]
[2]
  effect of trypsin inhibitor on release of hydrocodone: attenuate release of hydrocodone by prodrugs of the embodiments
[3]
  effect of trypsin inhibitor on release of oxycodone: attenuate release of oxycodone by prodrugs of the embodiments

## COc1ccc2c3c1O[C@H]1C(OC(=O)N4CCC(C(=O)O)CC4CNC(=O)[C@H](CCCNC(=N)N)NC(=O)CNC(C)=O)=CC[C@@]4(O)[C@@H](C2)N(C)CC[C@]314 (stereo partly drawn) [Compound KC-55, N-(oxycodone-6-enol-carbonyl)-[(2-methylamino)-piperidine-4-carboxylate]-L-arginine-glycine-acetate]
[4]; PO to rats
  release of oxycodone on oral administration: leads to release of oxycodone

## COc1ccc2c3c1O[C@H]1C(=O)CC[C@@]4(O)[C@@H](C2)N(C)CC[C@]314 [Oxycodone, oxycodone, reference compound]
[4]; male, Sprague Dawley, rat, plasma, po, 10 mg/kg
  Cmax: 14.7 ± 6.5 ng/mL

## N-(hydrocodone-6-enol-carbonyl)-(2-methylamino)piperidine-4-carboxylate]-L-arginine-glycine-acetate [Compound KC-40]
trypsin
  HC formation rate: 0.003 ± 0.00 μmol/h/BAEE U
